From ChEMBL document CHEMBL4417631, “Oral peptide inhibitors of interleukin-23 receptor and their use to treat inflammatory bowel diseases” (2017)
*1 amine or outer side, *2 acyl side, *3 side chain or, on linkers, in order; H or OH if unused. Where a SMILES comes first, the peptide text is derived from it. Bridges are numbered along the chain shown (N, C = ends). [ ]: non-standard residue; d: D form. Abu(4-yl) = O=C([C@H](CC[*:3])N[*:1])[*:2]; Pen = CC(C)(S)[C@H](N)C(=O)O; hLeu = CC(C)CC[C@H](N)C(=O)O

Tests used:
Interleukin-23 receptor [1] = target: T1, Interleukin-23 receptor (Homo sapiens, UniProt Q5VWK5); assay: Inhibition of interleukin-23 binding to human interleukin-23 receptor incubated for 2 hrs by competitive binding ELISA
T1 sequence (Q5VWK5 whole entry): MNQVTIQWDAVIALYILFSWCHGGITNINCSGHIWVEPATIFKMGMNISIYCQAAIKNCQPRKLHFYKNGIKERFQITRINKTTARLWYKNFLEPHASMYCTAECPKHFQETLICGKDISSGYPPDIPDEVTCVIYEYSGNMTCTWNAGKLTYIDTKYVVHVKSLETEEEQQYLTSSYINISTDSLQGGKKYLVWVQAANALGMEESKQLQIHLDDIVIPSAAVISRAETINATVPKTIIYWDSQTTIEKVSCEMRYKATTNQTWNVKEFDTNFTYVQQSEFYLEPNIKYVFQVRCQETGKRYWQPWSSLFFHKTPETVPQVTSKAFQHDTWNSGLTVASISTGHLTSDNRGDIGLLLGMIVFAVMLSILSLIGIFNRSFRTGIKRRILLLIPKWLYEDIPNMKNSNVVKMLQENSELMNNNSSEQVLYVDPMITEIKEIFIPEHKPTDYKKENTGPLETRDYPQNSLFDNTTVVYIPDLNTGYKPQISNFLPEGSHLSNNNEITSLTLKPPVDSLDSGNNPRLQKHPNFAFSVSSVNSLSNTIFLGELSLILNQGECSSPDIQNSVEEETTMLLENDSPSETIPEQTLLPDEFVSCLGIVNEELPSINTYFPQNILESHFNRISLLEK

[2] = Half life in simulated intestinal fluid at 20 uM by LC-MS/MS analysis; format: ADME
Interleukin-23 receptor [3] = target: T1, Interleukin-23 receptor; assay: Inhibition of interleukin-23 receptor in human DB cells assessed as reduction in IL-23-stimulated STAT3 phosphorylation incubated for 30 mins by HTRF assay; format: cell-based

Row | IC50 (Interleukin-23 receptor [1]) [nM] | half-life at 20 µM [2] [h] | IC50 (Interleukin-23 receptor [3]) [nM] | Structure (SMILES)
1 | > 30000 | 2 to 3 |  | CC(=O)N[C@H](C(=O)N[C@@H](CCC(N)=O)C(=O)N[C@H](C(=O)N[C@@H](Cc1c[nH]c2ccccc12)C(=O)N[C@@H](CCC(N)=O)C(=O)N[C@H](C(=O)N[C@@H](Cc1ccc(O)cc1)C(=O)N[C@@H](Cc1c[nH]c2ccccc12)C(=O)N(C)[C@@H](CCCNC(=N)N)C(=O)N[C@@H](CCC(=O)O)C(=O)N[C@@H](CC(N)=O)C(=O)NCC(N)=O)C(C)(C)S)[C@@H](C)O)C(C)(C)S
2 | 25 to 100 | < 1 | 25 to 100 | CC(=O)N[C@H]1CCSC[C@@H](C(=O)N[C@@H](Cc2ccc(OCCN)cc2)C(=O)N[C@@H](Cc2ccc3ccccc3c2)C(=O)N[C@@H](CCCN)C(=O)N[C@@H](CN)C(=O)N[C@@H](CC(N)=O)C(=O)NCC(N)=O)NC(=O)[C@H](CCC(N)=O)NC(=O)[C@H](Cc2c[nH]c3ccccc23)NC(=O)[C@H]([C@@H](C)O)NC(=O)[C@H](CCC(N)=O)NC1=O
3 | 25 to 100 | < 1 |  | CC(=O)N[C@H]1CCSC[C@@H](C(=O)N[C@@H](Cc2ccc(OCCN)cc2)C(=O)N[C@@H](Cc2c[nH]c3ccccc23)C(=O)N[C@@H](CCCN)C(=O)N[C@@H](CCC(=O)O)C(=O)N[C@@H](CC(N)=O)C(=O)NCC(N)=O)NC(=O)[C@H](CCC(N)=O)NC(=O)[C@H](Cc2c[nH]c3ccccc23)NC(=O)[C@H]([C@@H](C)O)NC(=O)[C@H](CCC(N)=O)NC1=O
4 | 100 to 1000 | > 6 |  | CC(=O)NCCCC[C@H](NC(=O)[C@](C)(CCCCN)NC(=O)[C@H](Cc1ccc2ccccc2c1)NC(=O)[C@H](Cc1ccc(Oc2ccccc2)cc1)NC(=O)[C@@H]1CSCC[C@H](NC(C)=O)C(=O)N[C@@H](CCC(N)=O)C(=O)N[C@@H]([C@@H](C)O)C(=O)N[C@@H](Cc2c[nH]c3ccccc23)C(=O)N[C@@H](CCC(N)=O)C(=O)N1)C(=O)N[C@@H](CC(N)=O)C(=O)NCC(N)=O
5 | 10000 | < 1 |  | CCCCCCCC[C@H](NC(=O)[C@@H]1CSCC[C@H](NC(C)=O)C(=O)N[C@@H](CCC(N)=O)C(=O)N[C@@H]([C@@H](C)O)C(=O)N[C@@H](Cc2c[nH]c3ccccc23)C(=O)N[C@@H](CCC(N)=O)C(=O)N1)C(=O)N[C@@H](Cc1ccc2ccccc2c1)C(=O)N[C@@](C)(CCCCN)C(=O)N[C@@H](CCCCNC(C)=O)C(=O)N[C@@H](CC(N)=O)C(=O)NCC(N)=O
6 | 100 to 1000 | < 1 |  | CC(=O)NC[C@H](NC(=O)[C@H](CCCN)NC(=O)[C@H](Cc1c[nH]c2ccccc12)NC(=O)[C@H](Cc1ccc(OCCN)cc1)NC(=O)[C@@H]1CSCC[C@H](NC(C)=O)C(=O)N[C@@H](CCC(N)=O)C(=O)N[C@@H]([C@@H](C)O)C(=O)N[C@@H](Cc2c[nH]c3ccccc23)C(=O)N[C@@H](CCC(N)=O)C(=O)N1)C(=O)N[C@@H](CC(N)=O)C(=O)NCC(N)=O
7 | 10000 | 1 to 2 |  | CCCCCCCC[C@H](NC(=O)[C@H](Cc1ccc(OC)cc1)NC(=O)[C@@H]1CSCC[C@H](NC(C)=O)C(=O)N[C@@H](CCC(N)=O)C(=O)N[C@@H]([C@@H](C)O)C(=O)N[C@@H](Cc2c[nH]c3ccccc23)C(=O)N[C@@H](CCC(N)=O)C(=O)N1)C(=O)N[C@@](C)(CCCCN)C(=O)N[C@@H](CCCCNC(C)=O)C(=O)N[C@@H](CC(N)=O)C(=O)NCC(N)=O
8 | 25 to 100 | < 1 |  | CC(=O)NC[C@H](NC(=O)[C@H](CCCN)NC(=O)[C@H](Cc1ccc2ccccc2c1)NC(=O)[C@H](Cc1ccc(OCCN)cc1)NC(=O)[C@@H]1CSCC[C@H](NC(C)=O)C(=O)N[C@@H](CCC(N)=O)C(=O)N[C@@H]([C@@H](C)O)C(=O)N[C@@H](Cc2c[nH]c3ccccc23)C(=O)N[C@@H](CCC(N)=O)C(=O)N1)C(=O)N[C@@H](CC(N)=O)C(=O)NCC(N)=O
9 | > 1000 | > 6 |  | CC(=O)NCCCC[C@H](NC(=O)[C@](C)(CCCCN)NC(=O)[C@H](Cc1ccc2ccccc2c1)NC(=O)[C@H](Cc1c(C)cc(O)cc1C)NC(=O)[C@@H]1CSCC[C@H](NC(C)=O)C(=O)N[C@@H](CCC(N)=O)C(=O)N[C@@H]([C@@H](C)O)C(=O)N[C@@H](Cc2c[nH]c3ccccc23)C(=O)N[C@@H](CCC(N)=O)C(=O)N1)C(=O)N[C@@H](CC(N)=O)C(=O)NCC(N)=O
10 | 100 to 1000 | > 6 |  | COc1ccc(C[C@H](NC(=O)[C@@H]2CSCC[C@H](NC(C)=O)C(=O)N[C@@H](CCC(N)=O)C(=O)N[C@@H]([C@@H](C)O)C(=O)N[C@@H](Cc3c[nH]c4ccccc34)C(=O)N[C@@H](CCC(N)=O)C(=O)N2)C(=O)N[C@@H](Cc2ccc3ccccc3c2)C(=O)N[C@@H](CCCN)C(=O)N[C@@H](CCCCNC(C)=O)C(=O)N[C@@H](CC(N)=O)C(=O)NCC(N)=O)cc1
11 | > 1000 | 1 to 2 |  | CC(=O)N[C@H]1CCSC[C@H](C(=O)N[C@@H](Cc2ccc(O)cc2)C(=O)N[C@@H](Cc2c[nH]c3ccccc23)C(=O)N[C@@H](CCC(C)C)C(=O)N[C@@H](CCC(=O)O)C(=O)N[C@@H](CC(N)=O)C(=O)NCC(N)=O)NC(=O)[C@H](CCC(N)=O)NC(=O)[C@H](Cc2c[nH]c3ccccc23)NC(=O)[C@H]([C@@H](C)O)NC(=O)[C@H](CCC(N)=O)NC1=O
12 | 1000 to 10000 | < 1 |  | CC(=O)N[C@@H](CS)C(=O)N[C@@H](CCC(N)=O)C(=O)N[C@H](C(=O)N[C@@H](Cc1c[nH]c2ccccc12)C(=O)N[C@@H](CCC(N)=O)C(=O)N[C@H](C(=O)N[C@@H](Cc1ccc(O)cc1)C(=O)N[C@@H](Cc1c[nH]c2ccccc12)C(=O)N[C@H](CC(N)=O)C(=O)N[C@@H](CCC(=O)O)C(=O)N[C@@H](CC(N)=O)C(=O)NCC(N)=O)C(C)(C)S)[C@@H](C)O
13 | > 1000 | < 1 |  | CC(=O)N[C@H]1CCSC(C)(C)[C@@H](C(=O)N[C@@H](Cc2ccc(O)cc2)C(=O)N[C@@H](Cc2c[nH]c3ccccc23)C(=O)N[C@@H](CCC(C)C)C(=O)N[C@@H](CCC(=O)O)C(=O)N[C@@H](CC(N)=O)C(=O)NCC(N)=O)NC(=O)[C@H](CCC(N)=O)NC(=O)[C@H](Cc2c[nH]c3ccccc23)NC(=O)[C@H]([C@@H](C)O)NC(=O)[C@H](CCC(N)=O)NC1=O (Ac-[Abu(4-yl)]QTWQ[Pen]YW[hLeu]ENG-NH2; thioether 1-6)
14 | 1000 to 10000 | 3 to 6 |  | CC(=O)N[C@H](C(=O)N[C@@H](CCC(N)=O)C(=O)N[C@H](C(=O)N[C@@H](Cc1c[nH]c2ccccc12)C(=O)N[C@@H](CCC(N)=O)C(=O)N[C@H](C(=O)N[C@@H](Cc1ccc(O)cc1)C(=O)N[C@@H](Cc1c[nH]c2ccccc12)C(=O)N[C@H](CC(N)=O)C(=O)N[C@@H](CCC(=O)O)C(=O)N[C@@H](CC(N)=O)C(=O)NCC(N)=O)C(C)(C)S)[C@@H](C)O)C(C)(C)S
15 | 100 to 1000 |  | 100 to 1000 | CC(=O)N[C@@H](CS)C(=O)N[C@@H](C)C(=O)N[C@@H](CC(=O)O)C(=O)N[C@@H](Cc1c[nH]c2ccccc12)C(=O)N[C@H](C(=O)N[C@@H](CS)C(=O)N[C@@H](Cc1ccc(O)cc1)C(=O)N[C@@H](Cc1c[nH]c2ccccc12)C(=O)N[C@@H](Cc1cnc[nH]1)C(=O)N[C@H](C(=O)N[C@@H](Cc1ccccc1)C(=O)NCC(=O)N[C@H](CCCCN)C(=O)O)[C@@H](C)O)C(C)C
16 | 10 to 25 |  | < 10 | CC(=O)N[C@H](C(=O)N[C@@H](CO)C(=O)N[C@H](C(=O)N[C@@H](Cc1c[nH]c2ccccc12)C(=O)N[C@@H](CCC(N)=O)C(=O)N[C@H](C(=O)N[C@@H](Cc1ccc(OCCN)cc1)C(=O)N[C@@H](Cc1ccc2ccccc2c1)C(=O)N[C@@](C)(CCCCN)C(=O)N[C@@H](CCC(=O)O)C(=O)N[C@@H](CC(N)=O)C(=O)NCC(N)=O)C(C)(C)S)[C@@H](C)O)C(C)(C)S
17 | 10 to 25 |  | < 10 | CC(=O)N[C@H](C(=O)N[C@@H](CCC(N)=O)C(=O)N[C@H](C(=O)N[C@@H](Cc1c[nH]c2ccccc12)C(=O)N[C@@H](CCC(N)=O)C(=O)N[C@H](C(=O)N[C@@H](Cc1ccc(OCCN)cc1)C(=O)N[C@@H](Cc1ccc2ccccc2c1)C(=O)N[C@@](C)(CCCCN)C(=O)N[C@@H](CCC(=O)O)C(=O)N[C@@H](CC(N)=O)C(=O)NCC(N)=O)C(C)(C)S)[C@@H](C)O)C(C)(C)S
18 | 100 to 1000 | < 1 |  | CC(=O)N[C@H]1CCSC[C@@H](C(=O)N[C@@H](Cc2ccc(OCCN)cc2)C(=O)N[C@@H](Cc2c[nH]c3ccccc23)C(=O)N[C@@H](CCCN)C(=O)N[C@@H](CN)C(=O)N[C@@H](CC(N)=O)C(=O)NCC(N)=O)NC(=O)[C@H](CCC(N)=O)NC(=O)[C@H](Cc2c[nH]c3ccccc23)NC(=O)[C@H]([C@@H](C)O)NC(=O)[C@H](CCC(N)=O)NC1=O
19 | 10 to 25 |  | < 10 | CC(=O)N[C@H](C(=O)N[C@H](C(=O)N[C@H](C(=O)N[C@@H](Cc1c[nH]c2ccccc12)C(=O)N[C@@H](CCC(N)=O)C(=O)N[C@H](C(=O)N[C@@H](Cc1ccc(OCCN)cc1)C(=O)N[C@@H](Cc1ccc2ccccc2c1)C(=O)N[C@@](C)(CCCCN)C(=O)N[C@@H](CCC(=O)O)C(=O)N[C@@H](CC(N)=O)C(=O)NCC(N)=O)C(C)(C)S)[C@@H](C)O)[C@@H](C)O)C(C)(C)S
20 | > 1000 | 3 to 6 |  | COc1ccc(CC[C@H](NC(=O)[C@@H]2CSCC[C@H](NC(C)=O)C(=O)N[C@@H](CCC(N)=O)C(=O)N[C@@H]([C@@H](C)O)C(=O)N[C@@H](Cc3c[nH]c4ccccc34)C(=O)N[C@@H](CCC(N)=O)C(=O)N2)C(=O)N[C@@H](Cc2ccc3ccccc3c2)C(=O)N[C@@](C)(CCCCN)C(=O)N[C@@H](CCCCNC(C)=O)C(=O)N[C@@H](CC(N)=O)C(=O)NCC(N)=O)cc1OC
